This note sets out measurements from US11725187B2, “Selection of human hematopoetic stem cells using EPCR” (UNIVERSITE DE MONTREAL, priority 2016, dated 2023).

For this test, the system named is EPCR. Briefly: EPCR surface expression on cultured CD34+ cells by flow cytometry. (In general: A flow cytometer gives signals particle by particle.)

Protocol: Fresh or cultured CB cells were labelled or sorted for different HSPC phenotypes using the following antibodies. […] Cells were analyzed on a BD Canto flow cytometer, and cell sorting (under low pressure conditions) was conducted on a BD Aria II cell sorter.

As to `Nc1cccc2c1CN(C1CCC(=O)NC1=O)C2=O` (centres unmarked) [lenalidomide], the “enrichment / expansion of EPCR+ population of cells” value (CD34+ cells (FIG. 17)) was “enriches”.
With `CC(C)n1cnc2c(NCCc3ccc(O)cc3)nc(-c3csc4ccccc34)nc21` [SR1], the “increase in proportion of EPCR+ cells / EPCR expression” value (CB, mPB or BM CD34+ cells, 7 days, UM171 38 nM, SR1 1000 nM (FIG. 2)) is “small increase”.
